Assay: Human HepG2 cell viability assay in 384 well format
Format: toxicity, cell-based
Design: dose 125 nL, time 70.5 hour; cytotoxicity at 70.5 h: concentration not given beside the values
Settings: HepG2 cells, read-out: Inhibition

First: O=C(O)[C@@H]1CN(C(=O)CCC(F)(F)F)C[C@H]1c1ccncc1
Second: O=C(CCc1ccccn1)N1CCCC(n2cncn2)C1 (configuration not stated)
The cytotoxicity at 70.5 h of the first is higher: -1.6% for the first, -13.6% for the second.

First: CCc1nc(C2CCCN2C(=O)c2cnns2)no1 (configuration not stated)
Second: CC(NC(=O)CCCc1nc(C(C)(C)C)no1)c1nnc2n1CCC2 (configuration not stated)
The cytotoxicity at 70.5 h of the first is lower: -8.27% for the first, -2.92% for the second.

Compared with `Cn1c(C2CCCCN2C(=O)CN2CCCC2=O)nc2ccccc21` (configuration not stated), `COC(=O)C1CCCCN1C(=O)c1ccccc1F` (configuration not stated) is lower in cytotoxicity at 70.5 h: 21.3% for the first, -2.94% for the second.

Compared with `CCCOCCN1CCc2[nH]c(-c3ccccc3)nc2C1`, `CCc1nnc2n1CCN(C(C(=O)N(CC)CC)c1ccccc1)C2` (configuration not stated) is lower in cytotoxicity at 70.5 h: 11.7% for the first, -12.7% for the second.

Going from `c1ccc(CN2CCC3(CC2)CC(Nc2nccs2)CO3)nc1` (configuration not stated) to `Cn1cc(CN2CCC(F)(F)C3(CCN(c4ccccn4)C3)C2)cn1` (configuration not stated), the cytotoxicity at 70.5 h falls from -8.19% to -14.4%.

Going from `CCCc1nc(NCCCOC)c2c(n1)c(C)nn2CC` to `COCCN(Cc1nccs1)c1nc2c(s1)c(C)nn2C`, the cytotoxicity at 70.5 h falls from 18.7% to -10.8%.

Going from `CNC(=O)c1ccc(C2CN(C(=O)c3c[nH]nc3C)CCO2)nc1` (configuration not stated) to `Cc1cnn(CCC(=O)N2CCOC(c3nc(C(C)(C)C)n[nH]3)C2)c1` (configuration not stated), the cytotoxicity at 70.5 h rises from -1.61% to 15.8%.

Compared with `CN(CCC#N)C(=O)Cc1csc(-c2ncccn2)n1`, `COCC(C)N(C)C(=O)NC1CCN(c2ncccn2)CC1` (configuration not stated) is higher in cytotoxicity at 70.5 h: -3.29% for the first, 7.61% for the second.

First: CCc1ccccc1C(=O)N1CCCC1CC(=O)c1cnn(C)c1 (configuration not stated)
Second: COc1ccccc1-n1cc(CN2CCN(C)[C@@H]3CS(=O)(=O)C[C@@H]32)cn1
The cytotoxicity at 70.5 h of the first is lower: -13.4% for the first, -7.42% for the second.

Compared with `Cc1noc(C(C)C)c1C(=O)NCC(c1cccc(F)c1)N(C)C` (configuration not stated), `Cc1ccc(C(=O)Nc2ccc(N(C)C)cn2)n1C` is higher in cytotoxicity at 70.5 h: -21.3% for the first, 7.03% for the second.

First: N[C@H]1CN(C(=O)c2cnc3cc(Cl)ccc3c2O)C[C@@H]1C1CC1
Second: CC(C)(O)CN1CCN(C(=O)c2cc(Cl)cc3cccnc23)CC1
The cytotoxicity at 70.5 h of the first is higher: 5.93% for the first, -11.7% for the second.

Compared with `CC(C)COC1CCN(S(=O)(=O)Cc2cccc(F)c2)CC1`, `Cc1ccc(C(=O)NCCS(=O)(=O)N2CCSCC2)n1C` is higher in cytotoxicity at 70.5 h: -14.2% for the first, -2.8% for the second.

Going from `CCCSCC(=O)N1C[C@H]2CC[C@@H]1CN(Cc1cccnc1)C2` to `CCNC(=O)N1CCN(Cc2nc3ccccc3[nH]2)[C@@H]2CS(=O)(=O)C[C@@H]21`, the cytotoxicity at 70.5 h falls from 6.46% to -9.34%.

Going from `Cc1c(F)cc(C(=O)O)cc1S(=O)(=O)Nc1ccc(F)c(C#N)c1` to `CCc1ccc(S(=O)(=O)Nc2c(C)cccc2C(=O)O)s1`, the cytotoxicity at 70.5 h rises from -9.42% to 18.4%.

Compared with `CNC(=O)NC(=O)CN(Cc1ccc(C#N)cc1)Cc1cccc(F)c1`, `CCC(O)CN(Cc1cccc(C(=O)N(C)C)c1)c1ccccc1` (configuration not stated) is higher in cytotoxicity at 70.5 h: -2.77% for the first, -1.87% for the second.

First: COCC(O)CNc1ccc(C#N)cc1C(F)(F)F (configuration not stated)
Second: COc1ccc(C(C)NCc2cnnn2C)cc1F (configuration not stated)
The cytotoxicity at 70.5 h of the first is lower: -9.81% for the first, 2.17% for the second.

First: O=C(c1cccs1)N1CC[C@@H]2[C@H]1CCC(=O)N2c1ccccc1
Second: O=C(Cc1ccc(-c2ccccc2)cc1)N1CCOCC(O)C1 (configuration not stated)
The cytotoxicity at 70.5 h of the first is lower: -16.9% for the first, -9.74% for the second.

Compared with `CN(CC1Cc2ccccc2CN1C)C(=O)CSc1nccn1C` (configuration not stated), `CC(=O)N[C@@H]1CN(Cc2ccccc2-n2nc(C)cc2C)C[C@H]1C(C)C` is higher in cytotoxicity at 70.5 h: -8.61% for the first, -7.15% for the second.

Going from `COc1ccc(-c2nnsc2C(=O)N2CCSCC2)cc1` to `CC(=O)NCC(=O)N1CCOCC(Cc2ccc3c(ccn3C)c2)C1` (configuration not stated), the cytotoxicity at 70.5 h rises from -8.21% to -8.14%.

First: CCC(NC(=O)c1cc(CC(C)C)nn1C)c1ccnn1C (configuration not stated)
Second: COc1ccccc1-n1cc(C(=O)NCCCn2nc(C)nc2C)cn1
The cytotoxicity at 70.5 h of the first is lower: -10.3% for the first, -9.68% for the second.

First: CN(C)C(=O)C1CCC2(CCN(C(=O)Nc3ccccc3)CC2)O1 (configuration not stated)
Second: CCC(CNC(=O)C1CC1)(OC)c1ccccc1 (configuration not stated)
The cytotoxicity at 70.5 h of the first is lower: -8% for the first, 8.11% for the second.

Compared with `CN1CCC(C)(CN(C)Cc2ccc(CCC(C)(C)O)cc2)C1` (configuration not stated), `Cn1cc(C(=O)NCc2ccc(OC3CCCCC3)nc2)ccc1=O` is lower in cytotoxicity at 70.5 h: -6.89% for the first, -7.34% for the second.

First: CCN(CCCNC(=O)c1cc2cccc(F)c2o1)S(C)(=O)=O
Second: O=C(NC1(c2cccc(F)c2)CCOCC1)c1cc[nH]n1
The cytotoxicity at 70.5 h of the first is lower: -8.74% for the first, -4.33% for the second.

Compared with `CC(NS(=O)(=O)CC1(C#N)CCCC1)c1cccc(-n2cccn2)c1` (configuration not stated), `CC(C(=O)N1CCC(Nc2cccnn2)CC1)n1ccnc1` (configuration not stated) is lower in cytotoxicity at 70.5 h: -3.64% for the first, -8.6% for the second.

Compared with `O=C1C(CS(=O)(=O)Nc2ccc(Br)cc2)=NC(=O)n2cccc21`, `O=c1[nH]ncc(NCCOc2ccc3c(c2)CCC3)c1Cl` is lower in cytotoxicity at 70.5 h: 2.35% for the first, -11.7% for the second.

Compared with `Cc1cc(C(=O)NC2CC(=O)N(C(C)C)C2=O)c(C)n1C(C)C` (configuration not stated), `Cc1nn(C)c2ncc(C(=O)N3CCNC(=O)C3)cc12` is higher in cytotoxicity at 70.5 h: -7.47% for the first, -3.66% for the second.

Going from `CN(C)c1nc2c(c(N3CCC(O)CC3)n1)CN(CC(C)(C)C)CC2` to `CCc1cc(N2CCCNCC2)n2nc(C)c(C)c2n1`, the cytotoxicity at 70.5 h rises from -13.5% to -5.51%.

Compared with `NS(=O)(=O)N1CCC(CSc2ccccc2)C1` (configuration not stated), `CCn1c(CN2CCCC2)nnc1C1CCN(S(=O)(=O)CC)CC1` is higher in cytotoxicity at 70.5 h: -9.2% for the first, -2.53% for the second.

With `Cn1nnnc1SCCNC(=O)c1c[nH]nc1C1CCCCC1` the cytotoxicity at 70.5 h was -9.31%.
